The values below come from article PMC7504088, ““Clicking” an Ionic Liquid to a Potent Antimicrobial Peptide: On the Route towards Improved Stability” (International Journal of Molecular Sciences, 2020).

The test system of one data set is S. aureus ATCC 25923. It is filed as cell-based, Staphylococcus aureus. On the procedure:
(§1) Both the conjugate MeIm-3.1-PP4 and its parent peptide 3.1-PP4 were next screened for their antibacterial activity. Minimum inhibitory concentration (MIC) values were determined following the Clinical and Laboratory Standards Institute (CLSI) protocol, against Gram-positive (Staphylococcus aureus and Enterococcus faecalis), and Gram-negative (Pseudomonas aeruginosa, Escherichia coli and Klebsiella pneumoniae) bacteria, including both reference strains (American Type Culture Collection, ATCC), and multidrug-resistant (MDR) clinical isolates. […] Relevantly, in most cases, MIC values matched the minimum bactericidal concentration (MBC) values, highlighting a bactericidal action for both MeIm-3.1-PP4 and its parent peptide.
(§2) The MIC of the test compounds was determined according to the CLSI guidelines. Briefly, the compounds were tested in the 1–1024 µg/mL concentration range, using the microdilution method in cation-adjusted Mueller-Hinton broth (MHB II) against reference strains of P. aeruginosa ATCC 27853, E. coli ATCC 25922, S. aureus ATCC 25923, and Enterococcus faecalis ATCC 29212. MIC values were also determined against MDR clinical isolates (antibiotic resistance patterns given in Supplementary Materials, Table S1) of P. aeruginosa (PA004, Pa3, Pa4), E. coli (Ec2, EC001, EC002, EC003), K. pneumoniae (KP004, KP010), S. aureus (SA007), and Enterococcus faecalis (Ef1). Along with the MIC values, MBC values were also determined as previously reported.

The test system of data set [1] is S. aureus SA007 (MDR clinical isolate). The data set is classed as cell-based, Staphylococcus aureus. The protocol: as §1, §2
The test system of data set [2] is preformed biofilms of KP010 (MDR clinical isolate of K. pneumoniae). Nature of the data set: Effect on preformed biofilms, OD600 of planktonic phase. The data set is classed as cell-based, Klebsiella pneumoniae. Particulars: 20×MIC, 24 h at 37 °C, untreated biofilms 0.740 ± 0.047, mean ± SD of three independent experiments in triplicate. The protocol:
Biofilm proliferation was determined by measuring the optical density (OD) of the planktonic phase of the biofilms, both treated with the test compounds and the untreated control. […] This improvement, afforded by the insertion of the imidazolium motif, is in line with previous reports of enhanced antibacterial activity when combining imidazolium ILs with non-peptide antibiotics, like ampicillin, including against resistant bacterial strains.
To assess the effects of test compounds on 48 h preformed biofilms of KP010, the biofilms were first grown in TSB from a starting inoculum of 1 × 10^6 CFU/mL in 96-well microtiter plates. After 48 h of incubation at 37 °C, the planktonic cells were removed, and the wells were rinsed and filled with the test compound at a 20× MIC concentration. The optical density at 600 nm was measured at time 0 and after incubation for 24 h at 37 °C. The reduction in the biofilm proliferation was calculated in comparison to the respective non-treated biofilms. Three independent experiments were performed in triplicate.

A further data set relates to P. aeruginosa ATCC 27853. The data set is classed as cell-based, Pseudomonas aeruginosa. The protocol:
as §1, §2

Data set [3] deals with P. aeruginosa Pa3 (MDR clinical isolate). The data set is classed as cell-based, Pseudomonas aeruginosa. The protocol: as §1, §2
In data set [4] the test system is P. aeruginosa PA004 (MDR clinical isolate). It is filed as cell-based, Pseudomonas aeruginosa. The protocol: as §1, §2
The subject of data set [5] is P. aeruginosa Pa4 (MDR clinical isolate). It is filed as cell-based, Pseudomonas aeruginosa. The protocol: as §1, §2
In data set [6] the test system is K. pneumoniae KP010 biofilms. Nature of the data set: Inhibition of biofilm formation, crystal violet assay. The data set is classed as cell-based, Klebsiella pneumoniae. Particulars: KP010, TSB, crystal violet absorbance at 595 nm, three independent experiments in triplicate. On the procedure:
(§3) Since this type of IL-AMP conjugate is being developed for its potential interest to address infected skin lesions, a preliminary assessment of the toxicity of both the conjugate and the parent peptide towards HaCaT human epidermal keratinocytes was carried out by the 3-(4,5-dimethylthiazol-2-yl)-2,5-diphenyltetrazolium bromide (MTT) assay, as previously described by us. […] This activity was assessed in two different ways: (i) inhibition of biofilm formation, and (ii) effect on a preformed biofilm. For evaluation of the inhibition of biofilm formation, both conjugate and parent peptide were tested at MIC and sub-inhibitory concentrations (½×MIC and at ¼×MIC) following previously established procedures, and the mass of biofilm formed at these concentrations was assessed through the crystal violet assay. […] Relevantly, the absorbance measured for the control (absence of test compounds) provides confirmation that the bacterial strain used is a good biofilm producer.
The ability of the test compounds to inhibit the biofilm formation by KP010 (a MDR clinical isolate of K. pneumoniae) was assessed at the respective MIC, ^1/2×MIC and ^1/4×MIC values in tryptic soy broth (TSB) using the crystal violet assay as previously reported. […]
Figure 1 Effects of 3.1-PP4 and MeIm-3.1-PP4 on formation of K. pneumoniae KP010 biofilms (biomass quantification by crystal violet absorbance at 595 nm). […]

In data set [7] the test system is K. pneumoniae KP004 (MDR clinical isolate). It is filed as cell-based, Klebsiella pneumoniae. On the procedure: as §1, §2
Data set [8] concerns K. pneumoniae KP010 (MDR clinical isolate). The data set is classed as cell-based, Klebsiella pneumoniae. The protocol:
as §1, §2

Data set [9] concerns Enterococcus faecalis ATCC 29212. The data set is classed as cell-based. The protocol:
as §1, §2

For data set [10], the system named is Enterococcus faecalis Ef1 (MDR clinical isolate). It is filed as cell-based. The protocol:
as §1, §2

Data set [11] deals with HaCaT human epidermal keratinocytes. It is filed as cell-based. Particulars: 24 h. On the procedure:
as §3
The cytotoxicity of peptides to HaCat cells was evaluated using the standard MTT assay. Briefly, cells were seeded at a density of 4 × 10^4 cells/mL, respectively, in 96-well plates and incubated at 37 °C in a 5% CO2 atmosphere. […] Absorbance was read at 570 nm in FlexStation®3 Multi-Mode Microplate Reader (Molecular Devices, San Jose, CA, USA).

The test system of data set [12] is E. coli EC001 (MDR clinical isolate). It is filed as cell-based, Escherichia coli. The protocol: as §1, §2
The test system of data set [13] is E. coli EC002 (MDR clinical isolate). The data set is classed as cell-based, Escherichia coli. The protocol:
as §1, §2

Data set [14] has as its system E. coli EC003 (MDR clinical isolate). The data set is classed as cell-based, Escherichia coli. The protocol:
as §1, §2

Another data set relates to E. coli ATCC 25922. The data set is classed as cell-based, Escherichia coli. The protocol: as §1, §2
Data set [15] has as its system E. coli Ec2 (MDR clinical isolate). It is filed as cell-based, Escherichia coli. The protocol:
as §1, §2

Another data set relates to tyrosinase. The experiment in a line: in vitro. The data set is classed as in vitro ADME. Particulars: mushroom (Agaricus bisporus), isolated enzyme, pH 6.8. From the text:
One of our main motivations to explore IL-peptide conjugates concerns improving the enzymatic stability of the peptide moiety, as poor pharmacokinetics is a major obstacle towards clinical translation of AMP and other bioactive peptides, even when topical applications are envisaged. For instance, in a non-healing infected wound, peptides are vulnerable to modification by endogenous (e.g., tyrosinase, elastase, metalloproteinases) and exogenous (produced by colonizing microbes) enzymes in the wound site. […] The samples were collected at different time points, for 24 h, and were analyzed by HPLC. […]
The IL-peptide conjugate and the parent peptide were both incubated at a final concentration of 10 mM in phosphate buffer (pH 6.8), with the enzyme tyrosinase (CAS:9002-10-2; T3824-250KU) at 18 U/mL, for 24 h at 37 °C. […] The supernatant was then analyzed by HPLC, using a Hitachi-Merck LaChrom Elite system with a reverse-phase C18 column (125 × […] and 5 µm pore size). […]
Results from peptide stability were expressed as the variation of the % of starting compound over time (mean ± SD). Data were analyzed in GraphPad Prism 8.0.1 Software using two-way analysis of variance (ANOVA) followed by Tukey’s multiple comparison test. […]

Marks after values point to notes of the source that are not given here. Ends that are not written are not given here. Peptide text beside a SMILES is read from it. * marks the point of attachment. X1 = C[n+]1ccn(Cc2cn(CC(=O)*)nn2)c1

`CC(C)C[C@H](NC(=O)[C@H](CCCCN)NC(=O)[C@H](CCCCN)NC(=O)Cn1cc(Cn2cc[n+](C)c2)nn1)C(=O)N[C@@H](CC(C)C)C(=O)N[C@@H](CCCCN)C(=O)N[C@@H](Cc1c[nH]c2ccccc12)C(=O)N[C@@H](CC(C)C)C(=O)N[C@@H](CC(C)C)C(=O)N[C@@H](CCCCN)C(=O)N[C@@H](CC(C)C)C(=O)N[C@@H](CC(C)C)C(=O)N[C@@H](CCCCN)C(=O)N[C@H](C(=O)N[C@H](C(=O)N[C@@H](CCCCN)C(=O)N[C@@H](CO)C(N)=O)[C@@H](C)O)[C@@H](C)O` [MeIm-3.1-PP4] (X1-KKLLKWLLKLLKTTKS-NH2): the MIC in the data set with S. aureus ATCC 25923 is given as 24.8 (11.6) ^a μg/mL; in [1] it was 12.4 (5.8) μg/mL; in the data set with P. aeruginosa ATCC 27853, 1.5 (0.7) μg/mL; in data set [3], 1.5 (0.7) μg/mL; in data set [4] it was 3.1 (1.4) μg/mL; in data set [5], 0.8 (0.4) μg/mL. Besides, the MIC is 49.6 (23.1) μg/mL in [7]; 6.2 (2.9) μg/mL in data set [8]; 99.3 (46.3) μg/mL in data set [9]; 3.1 (1.4) μg/mL in [10]; 3.1 (1.4) μg/mL in data set [12]; 1.5 (0.7) μg/mL in data set [13]. The figures for the MIC (in [14]; against E. coli ATCC 25922; in [15]) were 1.5 (0.7) μg/mL, 0.8 (0.4) μg/mL and 1.5 (0.7) μg/mL, respectively. In addition, the “OD600 of planktonic phase of peptide-treated biofilms” value in data set [2] is given as 0.497± 0.050. Further, the “biofilm formed at MIC” value in [6] (at MIC) is recorded as “only a little amount of biofilm was formed”. The “biofilm biomass formed at sub-inhibitory concentrations” value in data set [6] (at ½×MIC and ¼×MIC) was “lower than the control”. Besides, the IC50 (usually the point on the concentration scale where inhibition reaches its midpoint) in [11] was 19.4 ± 0.2 µM. In addition, the share remaining (usually the share of the starting amount still present when the sample was taken) at 24 h, 10 mM in the data set with tyrosinase is approximately 84%.

As for KKLLKWLLKLLKTTKS-NH2 [3.1-PP4], the MIC is listed as 10.3 (5.3) ^a μg/mL in the data set with S. aureus ATCC 25923; 10.3 (5.3) μg/mL in data set [1]; 2.3 (1.2) μg/mL against P. aeruginosa ATCC 27853; 1.3 (0.7) μg/mL in data set [3]; 1.3 (0.7) μg/mL in data set [4]; 1.3 (0.7) μg/mL in data set [5]. Also, the MIC is 2.3 (1.2) μg/mL in data set [7]; 2.3 (1.2) μg/mL in data set [8]; 41.3 (21.3) μg/mL in data set [9]; 2.3 (1.2) ^a μg/mL in [10]; 1.3 (0.7) μg/mL in data set [12]; 1.3 (0.7) μg/mL in data set [13]. Moreover, the MIC in data set [14] was 0.6 (0.3) μg/mL; against E. coli ATCC 25922 it was 1.3 (0.7) μg/mL; in data set [15], 1.3 (0.7) μg/mL. This molecule also came in with an IC50 in data set [11] of 34.2 ± 0.5 µM.
